Results from patent US7598255B2 (Janssen Pharmaceutica NV, priority 2005, dated 2009).
Where a name gives a salt, the structure may show the parent alone.

Key:
[1] = target: T1, human recombinant 5-HT2C receptor (Homo sapiens, UniProt P28335); assay: Affinity for 5HT2 receptor binding sites, h5-HT2C, [3H]mesulergine; settings: CHO h5-HT2C membranes
T1 sequence (P28335 33-458): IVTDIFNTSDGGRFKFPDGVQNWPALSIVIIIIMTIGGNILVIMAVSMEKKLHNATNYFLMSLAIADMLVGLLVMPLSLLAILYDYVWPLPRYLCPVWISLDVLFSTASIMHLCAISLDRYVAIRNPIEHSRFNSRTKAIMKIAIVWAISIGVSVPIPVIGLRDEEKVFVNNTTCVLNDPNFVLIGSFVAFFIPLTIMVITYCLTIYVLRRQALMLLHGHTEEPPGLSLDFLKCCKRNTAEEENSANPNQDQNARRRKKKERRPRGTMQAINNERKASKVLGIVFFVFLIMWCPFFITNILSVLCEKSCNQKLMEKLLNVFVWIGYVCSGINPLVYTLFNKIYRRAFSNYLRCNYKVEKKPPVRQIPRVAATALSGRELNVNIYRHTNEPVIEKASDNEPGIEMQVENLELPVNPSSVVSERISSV
Description: (§1) Sigmoidal inhibition curves were generated and fitted by nonlinear regression analysis (GraphPad Prism).
(§2) Receptor binding was performed using the human recombinant 5-HT2A (GB: X57830), 5-HT2B (GB: Z36748) and 5-HT2C (GB: M81778) receptors. The affinity of the compounds for the 3 different human 5-HT2 receptor subtypes was evaluated by competitive radioligand binding assays using [^3H]ketanserin (h5-HT2A) or [^3H]mesulergine (h5-HT2B and h5-HT2C). The assays were performed on membranes prepared from NIH3T3 stably transfected with h5-HT2A or CHO stably transfected with h5-HT2B and h5-HT2C.

rat 5-HT7a receptor = rat 5-HT7a receptor (Rattus norvegicus, UniProt P32305); assay: Affinity for 5-HT7 receptor binding sites, radioligand binding with [3H]5-CT; settings: membranes of HEK-293 cells with rat 5-HT7a, 1 nM [3H]5-CT
rat 5-HT7a receptor, sequence (P32305 whole entry): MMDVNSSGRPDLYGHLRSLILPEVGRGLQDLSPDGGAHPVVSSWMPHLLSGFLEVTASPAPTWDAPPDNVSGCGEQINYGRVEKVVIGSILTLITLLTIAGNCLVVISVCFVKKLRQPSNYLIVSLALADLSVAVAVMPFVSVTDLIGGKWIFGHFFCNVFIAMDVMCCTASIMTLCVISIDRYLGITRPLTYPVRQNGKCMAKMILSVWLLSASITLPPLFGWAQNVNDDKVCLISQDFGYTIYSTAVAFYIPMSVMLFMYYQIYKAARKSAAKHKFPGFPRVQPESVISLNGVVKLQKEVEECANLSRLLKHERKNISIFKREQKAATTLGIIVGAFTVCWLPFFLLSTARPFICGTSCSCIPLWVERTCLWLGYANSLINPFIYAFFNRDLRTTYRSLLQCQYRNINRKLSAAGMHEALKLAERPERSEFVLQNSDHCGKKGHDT
Description: The affinity of the compounds described in this invention for the 5-HT7 receptor binding site was evaluated by single competition radioligand binding assay. The assay was performed on membranes prepared from HEK-293 cells that had been subjected to stable transfection with the rat 5-HT7a receptor (GB: NM022938). Cells were scraped from the culture plates, suspended in Tris-HCl 50 mM pH 7.5 and collected through centrifugation (1000 rpm for 5 min). The cell pellets were homogenized (Polytron, 15 s, setting 5) in 50 mM Tris-HCl (pH 7.5), 5 mM EDTA. Following centrifugation (15,000 rpm for 25 min), membranes (135 μg protein/mL) were resuspended in the same buffer and incubated for 60 min at RT with 1 nM [^3H]5-CT in the presence of increasing concentration of test compounds. Nonspecific binding was defined in the presence of 10 μM 5-HT. Incubation was stopped by rapid filtration using the cell harvester (Packard). Radioactivity was counted in a TopCount-NXT (Packard). Experiments were conducted in triplicate.

5-HT2B receptor = 5-HT2B receptor (Homo sapiens, UniProt P41595); assay: Affinity for 5HT2 receptor binding sites, h5-HT2B, [3H]mesulergine; settings: CHO h5-HT2B membranes
5-HT2B receptor, sequence (P41595 whole entry): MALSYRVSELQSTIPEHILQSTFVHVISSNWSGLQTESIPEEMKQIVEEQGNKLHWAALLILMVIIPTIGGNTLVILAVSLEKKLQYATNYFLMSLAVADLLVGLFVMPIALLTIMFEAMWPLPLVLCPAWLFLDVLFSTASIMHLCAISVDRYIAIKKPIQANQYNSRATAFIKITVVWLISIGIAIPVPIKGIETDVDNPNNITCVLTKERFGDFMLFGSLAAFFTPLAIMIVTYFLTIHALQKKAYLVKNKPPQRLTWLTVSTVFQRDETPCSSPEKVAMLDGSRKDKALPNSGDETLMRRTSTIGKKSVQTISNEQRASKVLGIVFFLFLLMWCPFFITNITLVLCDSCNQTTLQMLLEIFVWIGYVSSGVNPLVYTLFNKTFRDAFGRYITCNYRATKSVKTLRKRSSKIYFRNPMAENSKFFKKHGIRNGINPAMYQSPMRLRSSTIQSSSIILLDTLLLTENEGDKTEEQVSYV
Description: as §1, §2

5-HT2A receptor = 5-HT2A receptor (Homo sapiens, UniProt P28223); assay: Affinity for 5-HT2A receptor binding sites, radioligand binding with [3H]ketanserin; settings: read-out: Ki 5-HT2A, rat cortex membranes (assay 2) or NIH3T3 h5-HT2A membranes (assay 3), table does not say which
Description: as §1
The affinity of the compounds for the rat 5-HT2A receptor was evaluated by competitive radioligand binding assay using [^3H]ketanserine as the radioligand. […] Brain tissue (rat cortex) was homogenized in 20 volumes per wet weight tissue of Tris-HCl buffer (50 mM, pH 7.4). The total membrane fraction was collected by centrifugation and washed by subsequent centrifugation runs (25 min at 25,000 g at 4° C.). Membranes were re-suspended in Tris-HCl buffer (50 mM, pH 7.4) containing 1 nM [^3H]ketanserin. Non-specific binding was estimated in the presence of 10 μM risperidone. The incubation was terminated by rapid filtration over Whatman GF/B filters pre-soaked in 0.1% polyethylenimine, and one washing step with 1 mL ice-cold Tris-HCl buffer, pH 7.4.

Structure (SMILES) | Ki [1] [nM] | Ki (rat 5-HT7a receptor) [nM] | Ki (5-HT2B receptor) [nM] | Ki (5-HT2A receptor) [nM]
CC(C)(C)c1nc2c(c(-c3ccc(F)cc3)n1)CNCC2 [Example 1, 2-tert-Butyl-4-(4-fluoro-phenyl)-5,6,7,8-tetrahydro-pyrido[4,3-d]pyrimidine] | 90 | 540 | 70 | 4
Fc1ccc(-c2nc(Cc3ccccc3)nc3c2CNCC3)cc1 [Example 2, 2-Benzyl-4-(4-fluoro-phenyl)-5,6,7,8-tetrahydro-pyrido[4,3-d]pyrimidine] | 510 | > 10000 | 5000 | 20
CCC(C)c1nc2c(c(-c3ccc(C)cc3)n1)CNCC2 (centres unmarked) [Example 4, 2-sec-Butyl-4-p-tolyl-5,6,7,8-tetrahydro-pyrido[4,3-d]pyrimidine hydrochloride] | 200 | > 10000 | 250 | 20
Fc1ccc(-c2nc(C3CCC3)nc3c2CNCC3)cc1 [Example 5, 2-Cyclobutyl-4-(4-fluoro-phenyl)-5,6,7,8-tetrahydro-pyrido[4,3-d]pyrimidine hydrochloride] | 250 | > 10000 | 350 | 13
Cc1ccc(-c2nc(C3CCC3)nc3c2CNCC3)cc1 [Example 6, 2-Cyclobutyl-4-p-tolyl-5,6,7,8-tetrahydro-pyrido[4,3-d]pyrimidine] | 300 | > 10000 | 200 | 50
Fc1ccc(-c2nc(C3CC3)nc3c2CNCC3)cc1 [Example 7, 2-Cyclopropyl-4-(4-fluoro-phenyl)-5,6,7,8-tetrahydro-pyrido[4,3-d]pyrimidine] | 900 | > 10000 | – | 25
FC(F)(F)c1ccc(-c2nc(Cc3ccccc3)nc3c2CNCC3)cc1 [Example 9, 2-Benzyl-4-(4-trifluoromethyl-phenyl)-5,6,7,8-tetrahydro-pyrido[4,3-d]pyrimidine] | 7500 | 5000 | > 10000 | 1350
Fc1ccc(-c2nc(Cc3ccccc3)nc3c2CNCC3)cc1F [Example 10, 2-Benzyl-4-(3,4-difluoro-phenyl)-5,6,7,8-tetrahydro-pyrido[4,3-d]pyrimidine] | 5000 | > 10000 | > 10000 | 200
c1ccc(Cc2nc3c(c(-c4ccccc4)n2)CNCC3)cc1 [Example 11, 2-Benzyl-4-phenyl-5,6,7,8-tetrahydro-pyrido[4,3-d]pyrimidine] | 2000 | > 10000 | > 10000 | 100
Fc1cccc(-c2nc(Cc3ccccc3)nc3c2CNCC3)c1 [Example 12, 2-Benzyl-4-(3-fluoro-phenyl)-5,6,7,8-tetrahydro-pyrido[4,3-d]pyrimidine] | 5000 | > 10000 | > 10000 | 300
CN1CCc2nc(Cc3ccc(F)cc3)nc(-c3ccc(F)cc3)c2C1 [Example 14, 2-(4-Fluoro-benzyl)-4-(4-fluoro-phenyl)-6-methyl-5,6,7,8-tetrahydro-pyrido[4,3-d]pyrimidine] | 4000 | > 10000 | 4000 | 30
CN1CCc2nc(Cc3ccc(F)cc3)nc(-c3ccc(C#N)cc3)c2C1 [Example 15, 4-[2-(4-Fluoro-benzyl)-6-methyl-5,6,7,8-tetrahydro-pyrido[4,3-d]pyrimidin-4-yl]-benzonitrile] | > 10000 | > 10000 | > 10000 | 1000
CC(C)Cc1nc2c(c(-c3ccc(F)cc3)n1)CNCC2 [Example 37, 4-(4-Fluoro-phenyl)-2-isobutyl-5,6,7,8-tetrahydro-pyrido[4,3-d]pyrimidine] | 1000 | > 10000 | 400 | –
CNCCc1cc(-c2ccc(F)cc2)nc(C(C)(C)C)n1 [Example 166, {2-[2-tert-Butyl-6-(4-fluoro-phenyl)-pyrimidin-4-yl]-ethyl}-methyl-amine] | 170 | – | 18 | 11
